# Test results: patent publication US20160169914A1, “KINETICS BIOMARKERS FOR NEURODEGENERATION” (KineMed, Inc., priority 2014, published 2016)
# Legend:
# [1] = tested on: BDNF (brain-derived neurotrophic factor) transport rate; settings: PD patients
# Method: Statistical significance was assessed by 1-way ANOVA with Tukey post-hoc testing. A P value less than 0.05 was considered statistically significant (* P<0.05). […] Solid lines indicate regression; dashed lines indicate 95% confidence intervals. The statistical test that generated both the r^2 and P values was a linear regression (mean±SD were generated by technical replicates of repeated sample preparations and analyses).
# The study group consisted of symptomatic PD patients, all on standard anti-PD medications, and 6 non-PD volunteers. […] Unified PD Rating Scale, PART III, and Hoehn and Yahr scores were obtained for each subject. […] Compliance to the experimental protocol was monitored by the clinical staff through collection of blood plasma samples for body water enrichment. […]
# Purified cargo proteins were hydrolyzed by treatment with 6N HCl for 16 hours at 110° C. Protein derived amino acids were derivatized to pentafluorobenzyl derivatives, and ^2H incorporation in alanine released from total vesicular proteins was measured by GC/MS, as described elsewhere (Busch R, et al., Biochim Biophys Acta., 1760(5):730-44 (2006)). ^2H enrichment was calculated as the percent increase over the natural abundance of alanine derivative present as the (M+1) mass isotopomer (EM1) (Busch R, et al., Biochim Biophys Acta., 1760(5):730-44 (2006)). […]
# [2] = tested on: ALS; settings: approved by the FDA in 1995; cited from earlier work
# [3] = Tolerability of high body water enrichments of 2H2O; type: in vivo, human; settings: 1-10% of total body water labeled, maintained for weeks or months; humans (>100 persons) and experimental animals
# Text: Relatively high body water enrichments of ^2H2O (e.g., 1-10% of the total body water is labeled) may be achieved relatively inexpensively using the techniques of the invention. […] This finding in a large number of human subjects (>100 persons) is contrary to previous concerns about vestibular toxicities at high doses of ^2H2O. One of the Applicants has discovered that as long as rapid changes in body water enrichment are prevented (e.g., by initial administration in small, divided doses), high body water enrichments of ^2H2O can be maintained with no toxicities. For example, the low expense of commercially available ^2H2O allows long-term maintenance of enrichments in the 1-5% range at relatively low expense (e.g., calculations reveal a lower cost for 2 months labeling at 2% ^2H2O enrichment, and thus 7-8% enrichment in the alanine precursor pool, than for 12 hours labeling of ^2H-leucine at 10% free leucine enrichment, and thus 7-8% enrichment in leucine precursor pool for that period).
# [4] = cited from earlier work
structure (smiles),measurement,setting,value
C#CCN[C@@H]1CCc2ccccc21 [rasagiline],"deficits in transport rates of BDNF in CSF, compared to patients not treated with Azilect","[1]; rasagiline 1 mg/day, 1-way ANOVA with Tukey post-hoc, * P<0.05, FIG. 7 panel A",reduced deficits in transport rates of BDNF
same,correlation between reduced delays in rates of BDNF transport and duration of treatment,"[1]; duration of treatment in years prior to LP, linear regression, FIG. 7 panel B",strong correlation
Nc1nc2ccc(OC(F)(F)F)cc2s1 [Riluzole],disease progression,[2],only delays disease progression modestly
[2H]O[2H] [^2H2O],toxicity at high body water enrichment,[3],without any evidence of toxicity
COc1ccc2c(c1OC)C(=O)O[C@@H]2[C@H]1c2c(cc3c(c2OC)OCO3)CCN1C [Noscapine],half-life in CNS tissue,[4]; CNS tissue (brain and spinal cord) and PNS,long half-life
same,blood brain barrier penetration,[4]; in vivo,penetrates the blood brain barrier
